Source: patent US9328085B2, “Heterocyclic compounds and expansion agents for hematopoietic stem cells” (NISSAN CHEMICAL INDUSTRIES, LTD., priority 2009, dated 2016)

What was measured:
CD34^+ cells = experiment: Expansion of CD34+ cells using human cord blood-derived CD34+ cells (Assay Example 1); assay type: cell-based; conditions: 100 ng/mL SCF, 7 days, based on the number of CD34^+ cells in the absence of compound
Protocol: (§1) Human cord blood-derived CD34^+ cells were purchased from Lonza and plated on a 24-well plate (Corning) (10000 cells/1 mL/well). As the culture medium, StemSpan SFEM (StemCell Technologies) containing 100 ng/mL SCF (Wako Pure Chemical Industries) was used, and one of Compounds No. 1 to 72 dissolved in dimethyl sulfoxide was added in an amount of 0.1% (v/v) to a final concentration of 1 or 3 μg/mL. As a positive control, TPO (PeproTech) was used at a final concentration of 10 ng/mL.
(§2) After the cells were incubated in liquid culture at 37° C. for 7 days in a CO2 incubator (5% CO2), the number of viable cells was counted by trypan blue assay. The number of CD34^+CD38^− cells was calculated as follows. After the incubation, the cells in the liquid culture was stained with a CD34 antibody (APC, Becton, Dickinson and Company) and a CD38 antibody (PE, Becton, Dickinson and Company), then washed with PBS(−) containing 2% (v/v) FBS and stained with propidium iodide (Sigma-Aldrich Japan) added to a final concentration of 5 μg/mL. The stained cells were analyzed with a BD FACSCANTO™ II flow cytometer (Becton, Dickinson and Company) to determined the proportions of CD34^+ cells and CD34^+CD38^− cells, which was multiplied by the number of viable cells to calculate the numbers of CD34^+ cells and CD34^+CD38^− cells.
(§3) The expansion efficiencies in the presence of 1 or 3 μg/mL of compounds based on the number of CD34^+ cells in the absence of them are shown in Tables 3-1 and 3-2 on a scale of A for expansion efficiencies of 6 or greater, B for expansion efficiencies of at least 4 and less than 6, and C for expansion efficiencies of at least 2 and less than 4. The expansion efficiencies in the presence of 1 or 3 μg/mL of compounds based on the number of CD34^+CD38^− cells in the absence of them are shown in Tables 4-1 and 4-2 on a scale of A for expansion efficiencies of 10 or greater, B for expansion efficiencies of at least 5 and less than 10, and C for expansion efficiencies of at least 3 and less than 5. Further, in Table 3, the compounds with an expansion efficiency twice or more greater than that of TPO are marked with O.

CD34^+CD38^− cells = experiment: Expansion of CD34+CD38- cells using human cord blood-derived CD34+ cells (Assay Example 1); assay type: cell-based; conditions: for Expansion efficiency (CD34^+CD38^− cells): 100 ng/mL SCF, 7 days, based on the number of CD34^+CD38^− cells in the absence of compound; for Comparison with TPO: 3 μg/mL compound vs TPO 10 ng/mL, CD34^+CD38^− cells
Protocol: as §1, §2, §3

Compound: CC(=NNC(=O)c1ccc(C(=O)NCc2ccc(C(=O)NCCN3CCOCC3)cc2)s1)c1csc(-c2ccc(Cl)c(Cl)c2)c1O [compound 19]
- Expansion efficiency (CD34^+ cells) (CD34^+ cells; 3 μg/mL compound): C (C for expansion efficiencies of at least 2 and less than 4)
- Expansion efficiency (CD34^+CD38^− cells) (CD34^+CD38^− cells; 3 μg/mL compound): A (A for expansion efficiencies of 10 or greater)

Compound: CC(=O)NCc1ccc(CNC(=O)c2ccc(C(=O)NN=C(C)c3csc(-c4ccc(C(C)(C)C)cc4)c3O)s2)cc1 [compound 53]
- Expansion efficiency (CD34^+ cells) (CD34^+ cells; 1 μg/mL compound): C (C for expansion efficiencies of at least 2 and less than 4)
- Expansion efficiency (CD34^+CD38^− cells) (CD34^+CD38^− cells; 1 μg/mL compound): B (B for expansion efficiencies of at least 5 and less than 10)

Compound: CC(=NNC(=O)c1cccc(C(=O)NCc2ccc(C(=O)NCCOCCO)cc2)n1)c1csc(-c2ccc(C(C)(C)C)cc2)c1O [compound 50]
- Expansion efficiency (CD34^+CD38^− cells) (CD34^+CD38^− cells; 3 μg/mL compound): C (C for expansion efficiencies of at least 3 and less than 5)

Compound: CC(=NNC(=O)c1ccc(C(=O)NCc2ccc(C(=O)NCCN3CCNCC3)cc2)s1)c1csc(-c2ccc(C(C)(C)C)cc2)c1O [compound 29]
- Expansion efficiency (CD34^+ cells) (CD34^+ cells; 3 μg/mL compound): A (A for expansion efficiencies of 6 or greater)
- Comparison with TPO (CD34^+CD38^− cells): ∘
- Expansion efficiency (CD34^+CD38^− cells) (CD34^+CD38^− cells; 3 μg/mL compound): A (A for expansion efficiencies of 10 or greater)

Compound: CC(=NNC(=O)c1ccc(C(=O)NCc2ccc(C(=O)NCCO)cc2)s1)c1csc(-c2ccc(Br)cc2)c1O [compound 15]
- Expansion efficiency (CD34^+ cells) (CD34^+ cells; 3 μg/mL compound): A (A for expansion efficiencies of 6 or greater)
- Comparison with TPO (CD34^+CD38^− cells): ∘
- Expansion efficiency (CD34^+CD38^− cells) (CD34^+CD38^− cells; 3 μg/mL compound): A (A for expansion efficiencies of 10 or greater)

Compound: CC(=NNC(=O)c1ccc(C(=O)NCc2ccc(C(=O)NCC3CCCO3)cc2)s1)c1csc(-c2ccc(Cl)c(Cl)c2)c1O (stereo not shown) [compound 10]
- Expansion efficiency (CD34^+ cells) (CD34^+ cells; 3 μg/mL compound): B (B for expansion efficiencies of at least 4 and less than 6)
- Expansion efficiency (CD34^+CD38^− cells) (CD34^+CD38^− cells; 3 μg/mL compound): A (A for expansion efficiencies of 10 or greater)

Compound: CC(=NNC(=O)c1ccc(C(=O)NCc2ccc(CC(N)=O)cc2)s1)c1csc(-c2ccc(Br)cc2)c1O [compound 68]
- Expansion efficiency (CD34^+ cells) (CD34^+ cells; 3 μg/mL compound): A (A for expansion efficiencies of 6 or greater)
- Comparison with TPO (CD34^+CD38^− cells): ∘
- Expansion efficiency (CD34^+CD38^− cells) (CD34^+CD38^− cells; 3 μg/mL compound): A (A for expansion efficiencies of 10 or greater)

Compound: CC(=NNC(=O)c1ccc(C(=O)NCc2ccc(C(=O)NCCN3CCN(C(=O)OC(C)(C)C)CC3)cc2)s1)c1csc(-c2ccc(Br)cc2)c1O [compound 27]
- Expansion efficiency (CD34^+CD38^− cells) (CD34^+CD38^− cells; 3 μg/mL compound): C (C for expansion efficiencies of at least 3 and less than 5)

Compound: CC(=NNC(=O)c1ccc(C(=O)NCc2ccc(C(=O)NCCO)cc2)s1)c1csc(-c2ccc(C(C)(C)C)cc2)c1O [compound 14]
- Expansion efficiency (CD34^+ cells) (CD34^+ cells; 1 μg/mL compound): A (A for expansion efficiencies of 6 or greater)
- Expansion efficiency (CD34^+CD38^− cells) (CD34^+CD38^− cells; 1 μg/mL compound): A (A for expansion efficiencies of 10 or greater)

Compound: COc1ccc(-c2scc(C(C)=NNC(=O)c3ccc(C(=O)NCc4ccc(C(=O)NCCOCCO)cc4)s3)c2O)cc1 [compound 65]
- Expansion efficiency (CD34^+ cells) (CD34^+ cells; 3 μg/mL compound): C (C for expansion efficiencies of at least 2 and less than 4)
- Expansion efficiency (CD34^+CD38^− cells) (CD34^+CD38^− cells; 3 μg/mL compound): B (B for expansion efficiencies of at least 5 and less than 10)

Compound: COCCOCCNC(=O)c1ccc(CNC(=O)c2ccc(C(=O)NN=C(C)c3csc(-c4ccc(Br)cc4)c3O)s2)cc1 [compound 33]
- Expansion efficiency (CD34^+ cells) (CD34^+ cells; 3 μg/mL compound): A (A for expansion efficiencies of 6 or greater)
- Comparison with TPO (CD34^+CD38^− cells): ∘
- Expansion efficiency (CD34^+CD38^− cells) (CD34^+CD38^− cells; 3 μg/mL compound): A (A for expansion efficiencies of 10 or greater)

Compound: CC(=NNC(=O)c1ccc(C(=O)NCc2ccc(C(=O)NCCOCCO)cc2)cc1)c1csc(-c2ccc(C(C)(C)C)cc2)c1O [compound 44]
- Expansion efficiency (CD34^+ cells) (CD34^+ cells; 3 μg/mL compound): C (C for expansion efficiencies of at least 2 and less than 4)
- Expansion efficiency (CD34^+CD38^− cells) (CD34^+CD38^− cells; 3 μg/mL compound): A (A for expansion efficiencies of 10 or greater)

Compound: CC(=NNC(=O)c1ccc(C(=O)NCc2ccc(C(=O)NCc3ccco3)cc2)s1)c1csc(-c2ccc(C(C)(C)C)cc2)c1O [compound 8]
- Expansion efficiency (CD34^+CD38^− cells) (CD34^+CD38^− cells; 3 μg/mL compound): B (B for expansion efficiencies of at least 5 and less than 10)

Compound: CC(=NNC(=O)c1ccc(C(=O)NCc2ccc(C(=O)NCCOCCO)cc2)nc1)c1csc(-c2ccc(C(C)(C)C)cc2)c1O [compound 47]
- Expansion efficiency (CD34^+CD38^− cells) (CD34^+CD38^− cells; 3 μg/mL compound): B (B for expansion efficiencies of at least 5 and less than 10)
